Measurements taken from patent US6573275B1, “Bicyclic amines” (Syngenta Limited, priority 1995, dated 2003).

Test system: peach aphid (Myzus persicae)
Test: Insecticidal test against peach aphid, infested Chinese cabbage leaves sprayed
Format: in vivo
Conditions: peach aphid (Myzus persicae) on Chinese cabbage leaves, sprayed with 500 ppm composition unless otherwise stated, mortality assessed after 3 days
Method in brief: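 Aphid-infested Chinese cabbage leaves were sprayed with compound at 500 ppm unless otherwise stated, formulated in acetone/ethanol diluted with water containing 0.05% Synperonic NP8. Mortality was assessed after 3 days.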

| Compound | Score (grading of mortality) |
| --- | --- |
| N#CC1(c2cncc(Cl)c2)CC2CCC(C1)N2c1c(F)c(F)c(F)c(F)c1F (stereo not drawn) [Compound 151, exo-3-(5-chloropyrid-3-yl)-endo-3-cyano-8-pentafluorophenyl-8-azabicyclo[3.2.1]octane] | A (A indicates 80-100% mortality) |
| N#CC1(c2cncc(Cl)c2)CC2CCC(C1)N2c1cc(Cl)ncn1 (centres unmarked) [Compound 152] | A (A indicates 80-100% mortality) |
| CC(=O)Nc1nc(CN2C3CCC2CC(C#N)(c2cncc(Cl)c2)C3)cs1 (centres unmarked) [Compound 153] | A (A indicates 80-100% mortality) |
| N#CC1(c2cncc(Cl)c2)CC2CCC(C1)N2C(=O)Nc1ccc(F)c(Cl)c1 (centres unmarked) [Compound 154] | B (B indicates 40-79% mortality) |
| N#CC1(c2cncc(Cl)c2)CC2CCC(C1)N2c1cncc(Cl)c1 (centres unmarked) [Compound 155] | A (A indicates 80-100% mortality) |
| N#CC1(c2cncc(Cl)c2)CC2CCC(C1)N2C(=O)c1cnccc1C(F)(F)F (centres unmarked) [Compound 157] | C (C indicates less than 40% mortality) |
| N#CC1(c2cncc(Cl)c2)CC2CCC(C1)N2Cc1nnsc1Cl (stereo not drawn) [Compound 158, exo-3-(5-chloropyrid-3-yl)-endo-3-cyano-8-((5-chloro-1,2,3-thiadiazol-4-yl)methyl)-8-azabicyclo[3.2.1]octane] | A (A indicates 80-100% mortality) |
| CC(C=O)(c1ccccc1)N1C2CCC1CC(C#N)(c1cncc(Cl)c1)C2 (stereo not drawn) [Compound 159, exo-3-(5-chloropyrid-3-yl)-endo-3-cyano-8-(2-phenyl-3-oxo-prop-2-yl)-8-azabicyclo[3.2.1]octane] | A (A indicates 80-100% mortality) |
| N#CC1(c2cncc(Cl)c2)CC2CCC(C1)N2CCCC(F)(F)F (centres unmarked) [Compound 160] | A (A indicates 80-100% mortality) |
| COc1cncc(C2(C#N)CC3CCC(C2)N3CC(F)(F)F)c1 (centres unmarked) [Compound 161] | A (A indicates 80-100% mortality) |
| CCOC(=O)c1ccc(N2C3CCC2CC(C#N)(c2cncc(Cl)c2)C3)cc1 (centres unmarked) [Compound 162] | C (C indicates less than 40% mortality) |
| N#CC1(c2cnc(F)c(Cl)c2)CC2CCC(C1)N2CC(F)(F)F (centres unmarked) [Compound 163] | C (C indicates less than 40% mortality) |
| CC(=O)Nc1cncc(C2(C#N)CC3CCC(C2)N3C)c1 (stereo not drawn) [Compound 165, exo-3-(5-acetylamidopyrid-3-yl)-endo-3-cyano-8-methyl-8-azabicyclo[3.2.1]octane] | A (A indicates 80-100% mortality) |
| COc1cncc(C2(C#N)CC3CCC(C2)N3CC#N)c1 (centres unmarked) [Compound 166] | A (A indicates 80-100% mortality) |
| N#CC1(c2cncc(Cl)c2)CC2CCC(C1)N2c1nc(CCl)ns1 (centres unmarked) [Compound 167] | A (A indicates 80-100% mortality) |
| N#CC1(c2cncc(Cl)c2)CC2CCC(C1)N2c1ncc(Cl)s1 (stereo not drawn) [Compound 168, exo-3-(5-chloropyrid-3-yl)-endo-3-cyano-8-(5-chlorothiazol-2-yl)-8-azabicyclo[3.2.1]octane] | A (A indicates 80-100% mortality) |
| N#CN1C2CCC1CC(C#N)(c1cncc(Cl)c1)C2 (stereo not drawn) [Compound 169, exo-3-(5-chloropyrid-3-yl)-endo-3-cyano-8-cyano-8-azabicyclo[3.2.1]octane] | A (A indicates 80-100% mortality) |
| N#CC1(c2cncc(Cl)c2)CC2CCC(C1)N2c1ccc(C(=O)O)cc1 (centres unmarked) [Compound 170] | B (B indicates 40-79% mortality) |
| C=COC(=O)N1C2CCC1CC(C#N)(c1cncc(OC)c1)C2 (centres unmarked) [Compound 171] | A (A indicates 80-100% mortality) |
| COc1cncc(C2(C#N)CC3CCC(C2)N3)c1 (centres unmarked) [Compound 172] | A (A indicates 80-100% mortality) |
| N#CC1(c2cncc(Cl)c2)CC2CCC(C1)N2c1ccc(Cl)cc1 (centres unmarked) [Compound 173] | A (A indicates 80-100% mortality) |
| CN1C2CCC1CC(C#N)(c1cncc(C(F)(F)F)c1)C2 (stereo not drawn) [Compound 174, exo-3-(5-trifluoromethylpyrid-3-yl)-endo-3-cyano-8-methyl-8-azabicyclo[3.2.1]octane] | A (A indicates 80-100% mortality) |
| C=CC(C)(c1ccccc1)N1C2CCC1CC(C#N)(c1cncc(Cl)c1)C2 (stereo not drawn) [Compound 175, exo-3-(5-chloropyrid-3-yl)-endo-3-cyano-8-(2-phenylbut-3-en-2-yl)-8-azabicyclo[3.2.1]octane] | A (A indicates 80-100% mortality) |
| CC(CO)(c1ccccc1)N1C2CCC1CC(C#N)(c1cncc(Cl)c1)C2 (stereo not drawn) [Compound 176, exo-3-(5-chloropyrid-3-yl)-endo-3-cyano-8-(2-phenyl-3-hydroxyprop-2-yl)-8-azabicyclo[3.2.1]octane] | A (A indicates 80-100% mortality) |
| N#CC1(c2cncc(C(F)(F)F)c2)CC2CCC(C1)N2C=O (centres unmarked) [Compound 177] | A (A indicates 80-100% mortality) |

| Compound | Score (grading of mortality) |
| --- | --- |
| CC(=O)OCC(C)(c1ccccc1)N1C2CCC1CC(C#N)(c1cncc(Cl)c1)C2 (stereo not drawn) [Compound 178, exo-3-(5-chloropyrid-3-yl)-endo-3-cyano-8-(2-phenyl-3-acetoxyprop-2-yl)-8-azabicyclo[3.2.1]octane] | A (A indicates 80-100% mortality) |
| CC(F)(CN1C2CCC1CC(C#N)(c1cncc(Cl)c1)C2)c1ccccc1 (stereo not drawn) [Compound 179, exo-3-(5-chloropyrid-3-yl)-endo-3-cyano-8-(2-fluoro-2-phenylprop-1-yl)-8-azabicyclo[3.2.1]octane] | A (A indicates 80-100% mortality) |
| CC(C)CC(C)(C)CCN1C2CCC1CC(C#N)(c1cncc(Cl)c1)C2 (centres unmarked) [Compound 180] | A (A indicates 80-100% mortality) |
| C=COC(=O)N1C2CCC1CC(C#N)(c1cncc(Br)c1)C2 (centres unmarked) [Compound 181] | A (A indicates 80-100% mortality) |
| N#CC1(c2cncc(Cl)c2)CC2CCC(C1)N2c1ncccn1 (centres unmarked) [Compound 182] | A (A indicates 80-100% mortality) |
| C=COC(=O)N1C2CCC1CC(C#N)(c1cncc(C(F)(F)F)c1)C2 (centres unmarked) [Compound 183] | A (A indicates 80-100% mortality) |
| N#CC1(c2cncc(C(F)(F)F)c2)CC2CCC(C1)N2 (centres unmarked) [Compound 184] | A (A indicates 80-100% mortality) |
| C=COC(=O)N1C2CCC1CC(C#N)(c1cccnc1)C2 (stereo not drawn) [Compound 185, exo-3-(Pyrid-3-yl)-endo-3-cyano-8-(vinyloxycarbonyl)-8-azabicyclo[3.2.1]octane] | A (A indicates 80-100% mortality) |
| N#CC1(c2cncc(C(F)(F)F)c2)CC2CCC(C1)N2Cc1cccc(Cl)c1 (centres unmarked) [Compound 186] | A (A indicates 80-100% mortality) |
| N#CC1(c2cncc(Cl)c2)CC2CCC(C1)N2c1ccnc(Cl)n1 (centres unmarked) [Compound 187] | C (C indicates less than 40% mortality) |
| N#CC1(c2cncc(Cl)c2)CC2CCC(C1)N2c1ccc(C(F)(F)F)cc1 (centres unmarked) [Compound 188] | A (A indicates 80-100% mortality) |
| CN1C2CCC1CC(C#N)(c1cncc(-n3cccc3)c1)C2 (stereo not drawn) [Compound 189, exo-3-(5-(pyrrol-1-yl)pyrid-3-yl)-endo-3-cyano-8-methyl-8-azabicyclo[3.2.1]octane] | A (A indicates 80-100% mortality) |
| CC(C)NC(C)(CN1C2CCC1CC(C#N)(c1cncc(Cl)c1)C2)c1ccccc1 (stereo not drawn) [Compound 191, exo-3-(5-chloropyrid-3-yl)-endo-3-cyano-8-(2-(isopropylamino)-2-phenylprop-1-yl)-8-azabicyclo[3.2.1]octane] | A (A indicates 80-100% mortality) |
| CC(c1ccccc1)(C(O)C#N)N1C2CCC1CC(C#N)(c1cncc(Cl)c1)C2 (stereo not drawn) [Compound 192, exo-3-(5-chloropyrid-3-yl)-endo-3-cyano-8-(1-hydroxy-1-cyano-2-phenylprop-2-yl)-8-azabicyclo[3.2.1]octane] | A (A indicates 80-100% mortality) |
| C#Cc1cncc(C2(C#N)CC3CCC(C2)N3C)c1 (stereo not drawn) [Compound 193, exo-3-(5-ethynylpyrid-3-yl)-endo-3-cyano-8-methyl-8-azabicyclo[3.2.1]octane] | A (A indicates 80-100% mortality) |
| CN1C2CCC1CC(C#N)(c1ccncn1)C2 (centres unmarked) [Compound 194] | A (A indicates 80-100% mortality) |
| C=C(OCC)c1cncc(C2(C#N)CC3CCC(C2)N3C)c1 (stereo not drawn) [Compound 195, exo-3-(5-(1-ethoxyvinyl)pyrid-3-yl)-endo-3-cyano-8-methyl-8-azabicyclo[3.2.1]octane] | A (A indicates 80-100% mortality) |
| CCC(C)(C)N1C2CCC1CC(C#N)(c1cccnc1)C2 (centres unmarked) [Compound 196] | A (A indicates 80-100% mortality) |
| CCOC(=O)C(C)N1C2CCC1CC(C#N)(c1cncc(Cl)c1)C2 (stereo not drawn) [Compound 197, exo-3-(5-chloropyrid-3-yl)-endo-3-cyano-8-(1-(ethoxycarbonyl)ethyl)-8-azabicyclo[3.2.1]octane] | A (A indicates 80-100% mortality) |
| CN1C2CCC1CC(C#N)(c1ncncc1Br)C2 (centres unmarked) [Compound 198] | A (A indicates 80-100% mortality) |
| N#CC1(c2cncc(C(F)(F)F)c2)CC2CCC(C1)N2CC(F)(F)F (centres unmarked) [Compound 199] | A (A indicates 80-100% mortality) |
| CN1C2CCC1CC(C#N)(c1cc(-c3ccncn3)ncn1)C2 (centres unmarked) [Compound 200] | A (A indicates 80-100% mortality) |
| CC(=O)c1cncc(C2(C#N)CC3CCC(C2)N3C)c1 (stereo not drawn) [Compound 201, exo-3-(5-acetylpyrid-3-yl)-endo-3-cyano-8-methyl-8-azabicyclo[3.2.1]octane] | A (A indicates 80-100% mortality) |
| CN1C2CCC1CC(C#N)(c1cncc(F)c1)C2 (stereo not drawn) [Compound 202, exo-3-(5-fluoropyrid-3-yl)-endo-3-cyano-8-methyl-8-azabicyclo[3.2.1]octane] | A (A indicates 80-100% mortality) |
| N#CC1(c2cncc(Br)c2)CC2CCC(C1)N2 (centres unmarked) [Compound 203] | A (A indicates 80-100% mortality) |
